Data on two compounds can be found in patent US20250352497A1, “BIGUANIDE BASE COMPOSITIONS, BIGUANIDE BASE PHARMACEUTICAL COMPOSITIONS, AND THEIR PREPARATIONS AND USES” (ADA FORSYTH INSTITUTE, INC., priority 2022, published 2025).

What all share (assay type): cell-based
The test system of test [1] is model microbiome simulating human oral microbiome. Briefly: pH of model microbiome (supernatant and saliva-derived biofilm) after treatment in the presence of 2% sucrose. The method, then: (§1) Saliva samples were collected and pooled from 5 healthy volunteers as a model microbiome simulating human oral microbiome, and used to inoculate SHI medium containing different test compositions and controls.
(§2) 1 mL pooled saliva sample was added to each well of a 24-well plate that had been pre-coated with sterilized, cell-free saliva. The plate was incubated at 37° C. for 16 h in microaerobic conditions (2% O2, 5% CO2, balanced with nitrogen) to allow biofilm formation. After incubation, planktonic portion was collected, optical density was measured at 600 nm and cells were pelleted for DNA isolation. Meanwhile, 1 mL of SHI medium was added to the biofilm portion of each well, biofilm cells were dispersed by scraping and vortex to break the cell aggregates. Optical density was measured at 600 nm and cells were collected for DNA isolation.
Supernatant and biofilms prepared with the model microbiome simulating human oral microbiome according to Example III were treated with embodiments of the CHX base composition (e.g., solution embodiments of the CHX base composition prepared according to Example I (the CHX base solutions); and MSN3 prepared according to Example II(B)(ii)).
Supernatant and biofilms prepared with the model microbiome simulating human oral microbiome according to Example III were treated with CHX base solution (100 μg/mL, prepared according to Example I(A)); MSN3 (100 μg/mL and 125 μg/mL of CHX base, prepared according to Example I(B)); or nothing (control).

Test [2] has the same test system. The experiment in a line: Bacterial killing effects on model microbiome (optical density at 600 nm). The method, then: as §1, §2
However, the pH of the treated biofilm appeared to depend on the CHX base concentration administered. The pH of the biofilm treated with CHX base solutions and CHX base loaded MSN remained under 5.5 when the CHX base concentration was 75 μg/mL or lower. […]

The test system is the same in test [3]. Briefly: Total colony forming units in supernatant and biofilm after treatment. Particulars: supernatant and biofilms. The procedure: as §1, §2
CHX-G and CPC were also evaluated in the same model microbiome prepared in supernatant and biofilms according to Example III.

Molecules are shown by their SMILES.

`[H]/N=C(\N/C(=N/[H])NCCCCCCNC(=N)NC(=N)Nc1ccc(Cl)cc1)Nc1ccc(Cl)cc1` [CHX base, Chlorhexidine]: the “pH of treated microbiome/biofilm compared with control” value in test [1] (Example IV, 16 hr, 2% sucrose) is recorded as “higher pH”. Further, the “pH of the treated microbiome” value in test [1] (supernatant and biofilms, various concentrations) is given as at most 6.9. Besides, the “cells present after treatment” value in test [2] (Example IV(B): CHX base solution 100 μg/mL, MSN3 100 and 125 μg/mL of CHX base) was “abundant of cells”. In addition, in test [2] (Example IV, supernatant and biofilms), the “survival/elimination of bacteria after treatment” value is “without complete elimination of bacteria”.
In the case of `N=C(NCCCCCCNC(=N)NC(=N)Nc1ccc(Cl)cc1)NC(=N)Nc1ccc(Cl)cc1.O=C(O)[C@H](O)[C@@H](O)[C@H](O)[C@H](O)CO.O=C(O)[C@H](O)[C@@H](O)[C@H](O)[C@H](O)CO` [CHX-G, chlorhexidine digluconate], in test [1] (Example V), the “pH of treated biofilms compared with untreated biofilms” value is recorded as “higher pH”. Moreover, the “bacterial killing compared with MSN3 (200 μg/mL of CHX base)” value in test [3] (200 μg/mL) is on record as “killed more bacteria”. In test [3] (Example V), the “bacteria remaining after treatment” value is on record as “no trace of bacteria”.
